Experimental data published in US20090312316A1, “NOVEL COMPOUNDS” (priority 2006, published 2009).
pIC50: −log10 of the molar value. ≈ marks a conversion by molar mass, not a printed value.

Experiments:
CAM vasculature = assay: Chick chorioallantoic membrane (CAM) assay of anti-angiogenic activity; assay type: in vivo
Experimental: Fresh fertile eggs were be incubated for 3 days in a standard egg incubator at 37° C. for 3 days. On Day 3, eggs were cracked under sterile conditions and embryos were placed into 20×100 mm plastic plates and cultivated at 37° C. in an embryo incubator with a water reservoir on the bottom shelf. Air was continuously bubbled into the water reservoir using a small pump so that the humidity in the incubator was kept constant. […] Embryos were returned to the incubator after addition of test material. Control embryos received 10 μL of vehicle alone. […] The blood vessel density was semi-quantitatively measured using an angiogenesis scoring system, in that exponential numbers 1 to 32 were used to indicate number of blood vessels present at the treatment sites on the CAM. Number 32 represented the highest density and 0 represented no angiogenesis. The percent of inhibition at each dosing site was calculated using the score recorded for that site divided by the mean score obtained from the appropriate control samples for each individual experiment. The percent of inhibition for each dose of a given compound was calculated by pooling all results obtained for that dose.

[1] = system: panel of 12 human tumour cell lines; assay: monolayer proliferation assay (modified propidium iodide assay) in a panel of 12 human tumour cell lines; assay type: cell-based
Experimental: In vitro evaluation of compounds for anticancer activity in a panel of 12 human tumour cell lines in a monolayer proliferation assay was carried out at the Oncotest Testing Facility, Institute for Experimental Oncology, Oncotest GmbH, Freiburg.
The Oncotest cell lines were established from human tumor xenografts as described by Roth et al., (1999). The origin of the donor xenografts was described by Fiebig et al., (1999). Other cell lines were either obtained from the NCI (H460, SF-268, OVCAR-3, DU145, MDA-MB-231, MDA-MB-468) or purchased from DSMZ, Braunschweig, Germany (LNCAP).
All cell lines, unless otherwise specified, were grown at 37° C. in a humidified atmosphere (95% air, 5% CO2) in a ‘ready-mix’ medium containing RPMI 1640 medium, 10% fetal calf serum, and 0.1 mg/mL gentamicin (PAA, Cölbe, Germany).
A modified propidium iodide assay was used to assess the effects of the test compound(s) on the growth of human tumour cell lines (Dengler et al., (1995)).
Briefly, cells were harvested from exponential phase cultures by trypsinization, counted and plated in 96 well flat-bottomed microtitre plates at a cell density dependent on the cell line (5-10.000 viable cells/well). After 24 h recovery to allow the cells to resume exponential growth, 0.010 mL of culture medium (6 control wells per plate) or culture medium containing macbecin were added to the wells. Each concentration was plated in triplicate. Compounds were applied in two concentrations (0.001 mM and 0.01 mM). Following 4 days of continuous exposure, cell culture medium with or without test compound was replaced by 0.2 mL of an aqueous propidium iodide (PI) solution (7 mg/L). To measure the proportion of living cells, cells were permeabilized by freezing the plates. After thawing the plates, fluorescence was measured using the Cytofluor 4000 microplate reader (excitation 530 nm, emission 620 nm), giving a direct relationship to the total number of viable cells.
The mean growth inhibition across the 12 cell-line panel was expressed as treated/control×100 (% T/C).
In vitro evaluation of the test compounds for anticancer activity in a panel of human tumour cell lines in a monolayer proliferation assay was carried out as described in the general methods using a modified propidium iodide assay. This screen may be used as a model for the toxic effect of compounds in inhibiting general cell growth.

capillary tube formation = conditions: Wakabayashi et al., 1997, cited from earlier work
B16-BL6 melanoma cells = conditions: same dosage (1.8 mg/kg); cited from earlier work
[2] = system: Lewis lung adenocarcinoma; conditions: WO 01/09113; cited from earlier work
[3] = system: protein synthesis in the cultured rat cells; conditions: cited from earlier work
[4] = system: VEGF-induced angiogenesis (WiDr cells); conditions: 1.8 mg/kg by intraperitoneal injection; Funahashi et al., 1999; cited from earlier work
[5] = system: human umbilical vein endothelial cells (HUVEC); conditions: cited from earlier work
[6] = target: cyclin-dependant kinase Cdc28/Cln2 (Saccharomyces cerevisiae, UniProt P00546); conditions: Tsuchiya et al., 2001; cited from earlier work
Sequence of cyclin-dependant kinase Cdc28/Cln2 (P00546 whole entry): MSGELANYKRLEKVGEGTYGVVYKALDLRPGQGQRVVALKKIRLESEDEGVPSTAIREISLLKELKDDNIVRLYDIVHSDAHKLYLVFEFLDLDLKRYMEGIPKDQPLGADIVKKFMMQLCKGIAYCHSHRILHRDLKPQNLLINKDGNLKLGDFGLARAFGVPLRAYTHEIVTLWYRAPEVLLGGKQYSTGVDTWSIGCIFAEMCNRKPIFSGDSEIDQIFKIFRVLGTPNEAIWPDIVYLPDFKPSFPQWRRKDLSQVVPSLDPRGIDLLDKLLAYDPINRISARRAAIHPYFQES
Sequence of cyclin-dependant kinase Cdc28/Cln2 (P20438 whole entry partner): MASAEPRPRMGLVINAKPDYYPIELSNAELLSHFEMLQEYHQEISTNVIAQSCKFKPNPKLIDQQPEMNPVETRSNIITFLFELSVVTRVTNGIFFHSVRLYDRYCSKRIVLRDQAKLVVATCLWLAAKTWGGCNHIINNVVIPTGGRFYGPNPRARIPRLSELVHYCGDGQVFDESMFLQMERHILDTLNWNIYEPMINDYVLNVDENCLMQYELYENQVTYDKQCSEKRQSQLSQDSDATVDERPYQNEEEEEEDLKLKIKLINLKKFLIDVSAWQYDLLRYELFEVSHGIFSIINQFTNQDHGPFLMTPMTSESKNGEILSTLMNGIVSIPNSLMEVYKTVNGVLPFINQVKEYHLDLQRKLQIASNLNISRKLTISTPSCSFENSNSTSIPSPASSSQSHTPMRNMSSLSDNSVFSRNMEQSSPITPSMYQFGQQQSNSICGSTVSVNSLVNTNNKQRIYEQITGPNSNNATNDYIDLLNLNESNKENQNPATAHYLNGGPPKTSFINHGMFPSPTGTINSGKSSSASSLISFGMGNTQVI

C[C@@H]1C[C@H](C)C[C@H](C)[C@@H](O)CC(=O)O[C@H]([C@@H]2CCC[C@H]2C(=O)O)C/C=C/C=C(/C#N)[C@H](O)[C@@H](C)C1 [Compound 1, Borrelidin]
Mean percentage inhibition of CAM vasculature at 25 ng/CAM (CAM vasculature; 25 ng/CAM): 62% | Ratio of inhibition of CAM vasculature at 25 ng/CAM to in vitro cancer cell inhibition at 1 uM (CAM vasculature; 25 ng/CAM versus 1 uM in cancer cell panel): 0.6 | Mean blood vessel density score (CAM vasculature; angiogenesis score up to 32 (highest density), 0 = no angiogenesis, mean of ten experiments): 6.4 | Mean % T/C at 1 μM ([1]; 1 μM, mean growth across 12 cell-line panel, treated/control x 100, 4 days exposure): 7 % T/C | Mean % T/C at 10 μM ([1]; 10 μM, mean growth across 12 cell-line panel, treated/control x 100, 4 days exposure): 6 % T/C | inhibition at 1 µM ([1]; Homo sapiens, 1 uM, 100 minus mean %T/C at 1 uM of Table III, read-out: Mean percentage Inhibition of cancer cell lines at 1 uM): 93% | IC50 inhibition of capillary tube formation (capillary tube formation): 0.0004 µg/mL | pIC50 (capillary tube formation; read-out: IC50 inhibition of capillary tube formation): 9.10 | inhibition of the formation of spontaneous lung metastases (B16-BL6 melanoma cells): effective | propagation of metastatic nodules after removal of the primary tumour [2]: weakly inhibited | anti-angiogenesis IC50 lower than IC50 for inhibition of protein synthesis ([3]; 0.4 ng/mL versus 20 ng/mL): 50 fold | IC50 inhibition of protein synthesis ([3]; cultured rat cells): 0.02 µg/mL | increment of vascular volume induced by WiDr cells [4]: significantly reduce | IC50 anti-proliferative activity towards HUVEC ([5]; cell growth assay, Wakabayashi et al., 1997): 0.006 µg/mL (≈ 0.0123 µM) | HUVEC anti-proliferative IC50 weaker than anti-angiogenesis activity ([5]; measured in the same medium): 15 fold | IC50 Cdc28/Cln2 [6]: 12 µg/mL (≈ 24.5 µM)
